Results reported in the CheMixHub ionic liquid set.

Assay: xn = mol fraction of the nth substance listed
Settings: 101 kPa

CCCCCCCCCCCCCCCC[n+]1ccccc1.O=C([O-])C(O)c1ccccc1 + NCC(=O)NCC(=O)O + O
electrical conductivity [S/m]
Settings	293.15 K	298.15 K	303.15 K	308.15 K	313.15 K
x1 = 1.08e-06, x2 = 0	0.00061	0.00068	0.00076	0.00083	0.0009
x1 = 1.09e-06, x2 = 0.001799	0.00287	0.00346	0.00413	0.0049	0.0058
x1 = 1.27e-06, x2 = 0.0009002	0.00184	0.0022	0.0026	0.0031	0.0036
x1 = 1.98e-06, x2 = 0	0.001	0.0012	0.0013	0.0014	0.0016
x1 = 2.19e-06, x2 = 0.001799	0.00326	0.00391	0.0046	0.0054	0.0064
x1 = 2.36e-06, x2 = 0.0009002	0.00226	0.00268	0.0031	0.0036	0.0042
x1 = 2.88e-06, x2 = 0	0.00147	0.0016	0.0018	0.002	0.0022
x1 = 3.26e-06, x2 = 0.0009002	0.00264	0.0031	0.0036	0.0042	0.0048
x1 = 3.46e-06, x2 = 0.001799	0.00367	0.00438	0.0051	0.006	0.007
x1 = 3.96e-06, x2 = 0	0.0019	0.0022	0.0024	0.0026	0.0029
x1 = 4.17e-06, x2 = 0.0009002	0.00301	0.0035	0.004	0.0046	0.0053
x1 = 4.56e-06, x2 = 0.001799	0.00407	0.00482	0.0056	0.0066	0.0076
x1 = 4.69e-06, x2 = 0	0.0023	0.0026	0.0029	0.0031	0.0035
x1 = 5.44e-06, x2 = 0.0009002	0.00346	0.004	0.0046	0.0053	0.006
x1 = 5.47e-06, x2 = 0.001799	0.00441	0.00521	0.0061	0.007	0.0082
x1 = 5.95e-06, x2 = 0	0.00281	0.0032	0.0035	0.0038	0.0042
x1 = 6.89e-06, x2 = 0.0009002	0.00401	0.00464	0.0053	0.006	0.0069
x1 = 6.93e-06, x2 = 0.001799	0.00487	0.00571	0.0066	0.0077	0.0089
x1 = 7.21e-06, x2 = 0	0.00341	0.0038	0.0042	0.0046	0.0051
x1 = 8.34e-06, x2 = 0.0009002	0.00451	0.0052	0.0059	0.0068	0.0077
x1 = 8.38e-06, x2 = 0.001799	0.00536	0.00626	0.0072	0.0084	0.0097
x1 = 8.83e-06, x2 = 0	0.00406	0.0046	0.005	0.0055	0.006
x1 = 9.97e-06, x2 = 0.0009002	0.00504	0.00579	0.0066	0.0075	0.0085
x1 = 1.002e-05, x2 = 0.001799	0.00583	0.0068	0.0078	0.009	0.0104
x1 = 1.045e-05, x2 = 0	0.00469	0.0053	0.0058	0.0065	0.0071
x1 = 1.142e-05, x2 = 0.0009002	0.00547	0.00629	0.0071	0.0081	0.0092
x1 = 1.166e-05, x2 = 0.001799	0.0062	0.00723	0.0083	0.0096	0.011
x1 = 1.207e-05, x2 = 0	0.00516	0.0058	0.0064	0.0071	0.0079
x1 = 1.287e-05, x2 = 0.0009002	0.00582	0.00669	0.0076	0.0086	0.0098
x1 = 1.312e-05, x2 = 0.001799	0.0066	0.00763	0.0088	0.0101	0.0117
x1 = 1.351e-05, x2 = 0	0.00562	0.00631	0.007	0.0077	0.0085
x1 = 1.414e-05, x2 = 0.0009002	0.00617	0.00708	0.008	0.0091	0.0103
x1 = 1.476e-05, x2 = 0.001799	0.00697	0.0081	0.0093	0.0107	0.0122
x1 = 1.478e-05, x2 = 0	0.00603	0.0068	0.0075	0.0083	0.0092
x1 = 1.54e-05, x2 = 0.0009002	0.00651	0.0075	0.0084	0.0096	0.0108
x1 = 1.622e-05, x2 = 0	0.00644	0.0072	0.008	0.0089	0.0098
x1 = 1.622e-05, x2 = 0.001799	0.00735	0.0084	0.0097	0.0112	0.0128
x1 = 1.667e-05, x2 = 0.0009002	0.00687	0.0079	0.0089	0.0101	0.0114
x1 = 1.75e-05, x2 = 0.001799	0.00771	0.0088	0.0102	0.0117	0.0133
x1 = 1.766e-05, x2 = 0	0.00687	0.0077	0.0085	0.0094	0.0104
